Columns and labels:
Assay in all cases: combination Emax (second highest fraction inhibited in the dose matrix, 72 h); higher = more inhibition; extreme values may be limits of the assay
[1] = system: 697 (B-Lymphoblastic Leukemia)
Method in brief: (§1)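 After 24 hours at 37°C and 5% CO2 in 1536-well plates, cells in DMEM/F12 or RPMI plus 10% FBS received two-drug dose matrices for 72 hours. Viability came from CellTiter-Glo 2.0 luminescence and was scaled as inhibition, anchored at 0 by vehicle wells and at 1 by blank wells. Combination Emax is taken as the second-highest inhibition in the matrix, and Bliss excess as the observed combination effect less EA + EB − EA·EB, with EA and EB the single-agent effects.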

[2] = system: C3A (Hepatocellular Carcinoma)
Method in brief: as §1

[3] = system: CAL-78 (Chondrosarcoma)
Method in brief: as §1

[4] = system: CFPAC-1 (Pancreatic Carcinoma)
Method in brief: as §1

[5] = system: EM-2 (Chronic Myelogenous Leukemia)
Method in brief: as §1

[6] = system: HCC2157 (Breast Carcinoma)
Method in brief: as §1

[7] = system: IGR-1 (Melanoma)
Method in brief: as §1

[8] = system: J82 (Bladder Carcinoma)
Method in brief: as §1

[9] = system: JiyoyeP-2003 (Burkitt's Lymphoma)
Method in brief: as §1

[10] = system: KARPAS-620 (Plasma Cell Myeloma)
Method in brief: as §1

[11] = system: KATOIII (Gastric Carcinoma)
Method in brief: as §1

[12] = system: NCI-H1694 (Small Cell Lung Carcinoma)
Method in brief: as §1

[13] = system: RH-1 (Ewing's Sarcoma)
Method in brief: as §1

[14] = system: SK-N-FI (Neuroblastoma)
Method in brief: as §1

[15] = system: SN12C (Kidney Carcinoma)
Method in brief: as §1

[16] = system: SW756 (Cervical Carcinoma)
Method in brief: as §1

[17] = system: TGBC24TKB (Biliary Tract Carcinoma)
Method in brief: as §1

[18] = system: U-266 (Plasma Cell Myeloma)
Method in brief: as §1

[19] = system: SNU-C5 (Colorectal Carcinoma)
Method in brief: as §1

[20] = system: IHH-4 (Thyroid Gland Carcinoma)
Method in brief: as §1

| SMILES | combination Emax [1] | combination Emax [2] | combination Emax [3] | combination Emax [4] | combination Emax [5] | combination Emax [6] | combination Emax [7] | combination Emax [8] | combination Emax [9] | combination Emax [10] | combination Emax [11] | combination Emax [12] | combination Emax [13] | combination Emax [14] | combination Emax [15] | combination Emax [16] | combination Emax [17] | combination Emax [18] | combination Emax [19] | combination Emax [20] |
| --- | --- | --- | --- | --- | --- | --- | --- | --- | --- | --- | --- | --- | --- | --- | --- | --- | --- | --- | --- | --- |
| Cc1c2c(nn1C)CSCc1cc(n(C)n1)CSc1cc(c3ccccc3c1)OCCCc1c(C(=O)O)n(C)c3c-2c(Cl)ccc13 [AZD5991] + C1CN(CCC1(C(=O)N[C@@H](CCO)C2=CC=C(C=C2)Cl)N)C3=NC=NC4=C3C=CN4 [Capivasertib] (first compound max 1 µM, 7x7, partner max 3 µM) | 1 | 0.254 | 0.868 | 0.2 | 0.409 | 0.992 | 0.26 | 0.201 | 0.857 | 1 | 0.233 | 1 | 0.795 | 0.514 | 0.204 | 0.136 | 0.175 | 0.97 |  |  |
| C[C@@H](c1ccc2nccn2c1)n1nnc2ncc(-c3cnn(C)c3)nc21 [Savolitinib] + CN(CC[C@H](CSC1=CC=CC=C1)NC2=C(C=C(C=C2)S(=O)(=O)NC(=O)C3=CC=C(C=C3)N4CCC(CC4)[C@H](C5=CC=CC=C5C6=CC=C(C=C6)Cl)O)S(=O)(=O)C(F)(F)F)CCO [AZD4320] (first compound max 1 µM, 7x7, partner max 1 µM) | 1 | 0.183 | 0.457 | 0.143 | 0.971 | 0.934 | 0.409 | 0.604 | 0.439 |  |  | 0.622 | 0.488 |  |  | 0.246 | 0.561 |  | 0.173 |  |
| CCc1c2c(nc3ccc(O)cc13)-c1cc3c(c(=O)n1C2)COC(=O)[C@]3(O)CC [SN-38] + O=C(c1cc(Cc2n[nH]c(=O)c3ccccc23)ccc1F)N1CCN(C(=O)C2CC2)CC1 [Olaparib] (first compound max 0.3 µM, 7x7, partner max 10 µM) | 1 | 0.665 |  | 0.831 | 1 |  | 0.634 | 0.861 | 0.947 | 0.25 | 0.252 |  | 1 | 0.518 | 0.738 | 0.766 | 0.472 | 0.367 |  | 0.921 |
| CN(C)CCCOc1ccc(-c2ccc3ncc4c(c3c2)n(C2CCOCC2)c(=O)n4C)cn1 [AZD0156] + O=C(c1cc(Cc2n[nH]c(=O)c3ccccc23)ccc1F)N1CCN(C(=O)C2CC2)CC1 [Olaparib] (first compound max 3 µM, partner max 3 µM) | 0.97 | 0.22 | 0.272 | 0.434 | 0.306 | 0.38 | 0.209 | 0.128 | 0.311 | 0.612 | 0.195 |  | 0.649 | 0.148 | 0.102 | 0.155 | 0.457 | 0.171 | 0.325 | 0.516 |

From the supplement of paper PMC11061612
